The values that follow come from patent publication US8546377B2 (AbbVie Inc., priority 2009, dated 2013).

Molecules are shown by their SMILES.

In one assay the target is T1, 5HT2C receptors (Homo sapiens, UniProt P28335).
T1 sequence (P28335 33-458): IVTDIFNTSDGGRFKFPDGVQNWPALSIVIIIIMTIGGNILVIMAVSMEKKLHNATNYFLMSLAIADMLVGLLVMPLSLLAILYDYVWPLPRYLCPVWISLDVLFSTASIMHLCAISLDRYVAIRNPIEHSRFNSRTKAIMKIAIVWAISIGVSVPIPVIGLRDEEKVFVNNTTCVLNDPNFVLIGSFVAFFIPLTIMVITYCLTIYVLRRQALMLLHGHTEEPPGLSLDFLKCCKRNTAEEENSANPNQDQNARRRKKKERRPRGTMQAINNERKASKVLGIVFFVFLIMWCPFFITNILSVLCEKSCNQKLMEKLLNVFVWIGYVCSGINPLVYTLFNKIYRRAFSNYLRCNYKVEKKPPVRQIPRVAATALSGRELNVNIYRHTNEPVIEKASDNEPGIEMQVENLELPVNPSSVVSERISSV
The experiment in a line: Human 5-HT2C functional assay in 1321N1 cells (intracellular calcium, FLIPR). The conditions noted are these: for EC50: 1321N1 cells stably transfected, maximum calcium response, read-out: EC50 (μM), 5-HT2c Agonist Activity; for Emax: 1321N1 cells, percentage relative to the effect of serotonin, read-out: Emax (%), 5-HT2c Agonist Activity. Set-up: expressed in transfected cells; host or cells: 1321N1 cells. The format is cell-based. On the procedure: (ii) Human 5-HT2C Functional Assay in 1321N1 Cells
Functional activity was determined by testing the effect of the compounds on intracellular calcium levels in 1321N1 cells stably transfected with the human 5-HT2C receptor. Cells were seeded into 96-well plates at 50,000 cells/well and grown overnight in tissue culture medium (DMEM with Glutamax I (Invitrogen), containing 10% dFCS, 50 μg/mL Gentamicin, 400 μg/mL Geneticin) at 37° C. and 7% CO2. Growth medium was replaced by medium without dFCS for overnight incubation. Cells were loaded with a fluorescent calcium-sensitive dye in the presence of 1% probenicid according to the manufacturer's protocol (Fluo4 AM, Molecular Devices). Serial compound dilutions (final concentrations 10^−10 to 10^−5 M) were added to the cells either alone or in the presence of serotonin (10^−9 M) and the maximum calcium response was determined using a FLIPR instrument (Molecular Devices). Concentration-response curves were fitted using a four-parameter logistic equation (GraphPad Prism). The concentration at which the compound exerts half its maximal effect is named the ‘effective concentration 50’ or ‘EC50’ and is listed in Table 2.
Emax is the maximum functional response or efficacy expressed as a percentage relative to the effect of serotonin.

The target of assay [1] is T2, human serotonin 5-HT2c receptor (Homo sapiens, UniProt P28335).
T2 construct: expressed in transfected cells; host or cells: CHO cells (membrane homogenate)
T2 sequence (P28335 33-458): T1 sequence (P28335 33-458)
The experiment in a line: Human 5-HT2C receptor radioligand binding assay (agonist site, [125I](±)DOI). The settings on record: membranes of transfected CHO cells, 0.2 nM [125I](±)DOI, 15 minutes at 37° C. On the procedure: To determine the effectiveness of compounds having a formula (I), these compounds can be evaluated in a radioligand binding assay for the agonist site of the human serotonin 5-HT2c receptor or in vitro models of cellular function.
(i) Human 5-HT2C Receptor Radioligand Binding Assay
Affinity of compounds for the agonist site of the 5-HT2c receptor in transfected CHO cells was determined in a radioligand binding assay essentially as described by Bryant, H. U., et al., Life Sciences (1996) 59(15), 1259-1268.

A word on the EC50: it is the concentration at which the effect is half-maximal. A word on the Emax: it is the maximal effect, on the per cent scale that the assay sets. The term Ki denotes the dissociation constant of the complex between target and ligand, obtained from inhibition or displacement. Low readings indicate tighter binding, high ones weaker binding. Turning to `O=C1CC2CNCCN2c2cc(CCc3ccccc3)ccc2N1` (stereo not shown) [Example 29, 10-(2-phenylethyl)-1,2,3,4,4a,5-hexahydropyrazino[1,2-a][1,5]benzodiazepin-6(7H)-one], on 5HT2C receptors, the EC50 came to 0.0043 µM and the Emax was determined as 104%. In assay [1], this molecule yielded a Ki of 0.011 µM.
For `CN1C(=O)CC2CNCCN2c2ccccc21` (stereo not shown) [Example 20, 7-methyl-1,2,3,4,4a,5-hexahydropyrazino[1,2-a][1,5]benzodiazepin-6(7H)-one] the same measures were 0.0759 µM, 103% and 0.22 µM.
For `O=C1CC2CN(Cc3ccccc3)CCN2c2cc(Cl)ccc2N1` (stereo not shown) [Example 24, 3-benzyl-10-chloro-1,2,3,4,4a,5-hexahydropyrazino[1,2-a][1,5]benzodiazepin-6(7H)-one], at 5HT2C receptors, the EC50 came out at 0.942 µM. Further, the affinity in assay [1] corresponds to a Ki of 0.36 µM.
Regarding `O=C1CC2CNCCN2c2cc(Cl)c(Cl)cc2N1` (stereo not shown) [Example 15, 9,10-dichloro-1,2,3,4,4a,5-hexahydropyrazino[1,2-a][1,5]benzodiazepin-6(7H)-one], at 5HT2C receptors, the EC50 turned out to be 0.0081 µM and the Emax is 104%. The molecule also gave a Ki in assay [1] of 0.017 µM.
`c1ccc2c(c1)NCCC1CNCCN21` (stereo not shown) [Example 17, 1,2,3,4,4a,5,6,7-octahydropyrazino[1,2-a][1,5]benzodiazepine]: at 5HT2C receptors, the EC50 came to 0.073 µM and the Emax came to 111%. Besides, the Ki in assay [1] was determined as 0.14 µM.
For `O=C1CC2CNCCN2c2ccc(Br)cc2N1` (stereo not shown) [Example 13, 9-bromo-1,2,3,4,4a,5-hexahydropyrazino[1,2-a][1,5]benzodiazepin-6(7H)-one] the same measures were 0.0683 µM, 79% and 0.23 µM.
On the same counts, the results for `Clc1cccc(CN2CCC3CNCCN3c3ccccc32)c1` (stereo not shown) [Example 22, 7-(3-chlorobenzyl)-1,2,3,4,4a,5,6,7-octahydropyrazino[1,2-a][1,5]benzodiazepine] are 0.0697 µM, 80.5% and 0.085 µM.
Turning to `O=C1CC2CNCCN2c2c(Br)cccc2N1` (stereo not shown) [Example 30, 11-bromo-1,2,3,4,4a,5-hexahydropyrazino[1,2-a][1,5]benzodiazepin-6(7H)-one], on 5HT2C receptors, the half-maximal effective concentration (EC50) worked out at 0.0017 µM and the Emax worked out at 113%. Further, the Ki in assay [1] came out at 0.016 µM.
On the same counts, the results for `O=C1CC2CNCCN2c2ccccc2N1` (stereo not shown) [Example 1, 1,2,3,4,4a,5-hexahydropyrazino[1,2-a][1,5]benzodiazepin-6(7H)-one] are 0.0135 µM, 100% and 0.086 µM.
For `O=C1CC2CNCCN2c2cc(/C=C/c3ccc(Cl)cc3)ccc2N1` (stereo not shown) [Example 27, 10-[(E)-2-(4-chlorophenyl)vinyl]-1,2,3,4,4a,5-hexahydropyrazino[1,2-a][1,5]benzodiazepin-6(7H)-one] the same measures were 0.183 µM, 96.5% and 0.013 µM.
On the same counts, the results for `O=C1CC2CNCCN2c2cc(/C=C/c3cccc(Cl)c3)ccc2N1` (stereo not shown) [Example 25, 10-[(E)-2-(3-chlorophenyl)vinyl]-1,2,3,4,4a,5-hexahydropyrazino[1,2-a][1,5]benzodiazepin-6(7H)-one] are 0.0145 µM, 101% and 0.0014 µM.
In the case of `O=C1CC2CNCCN2c2cc(-c3ccccc3)ccc2N1` (stereo not shown) [Example 5, 10-phenyl-1,2,3,4,4a,5-hexahydropyrazino[1,2-a][1,5]benzodiazepin-6(7H)-one], at 5HT2C receptors, the EC50 was 0.0849 µM and the Emax turned out to be 86%. Moreover, affinity in assay [1] was put at a Ki of 0.074 µM.
Regarding `CCN1CCN2c3ccccc3NC(=O)CC2C1` (stereo not shown) [Example 23, 3-ethyl-1,2,3,4,4a,5-hexahydropyrazino[1,2-a][1,5]benzodiazepin-6(7H)-one], on 5HT2C receptors, the EC50 amounted to 0.165 µM and the Emax came out at 87%. Further, the Ki in assay [1] is 0.19 µM.
On the same counts, the results for `Clc1ccccc1CN1CCC2CNCCN2c2ccccc21` (stereo not shown) [Example 21, 7-(2-chlorobenzyl)-1,2,3,4,4a,5,6,7-octahydropyrazino[1,2-a][1,5]benzodiazepine] are 0.044 µM, 93% and 0.097 µM.
On the same counts, the results for `O=C1CC2CNCCN2c2cc(Br)ccc2N1` (stereo not shown) [Example 4, 10-bromo-1,2,3,4,4a,5-hexahydropyrazino[1,2-a][1,5]-benzodiazepin-6(7H)-one] are 0.0028 µM, 92% and 0.0069 µM.
For `Cc1ccc2c(c1)N1CCNCC1CC(=O)N2` (stereo not shown) [Example 10, 10-methyl-1,2,3,4,4a,5-hexahydropyrazino[1,2-a][1,5]benzodiazepin-6(7H)-one] the same measures were 0.003 µM, 99% and 0.0083 µM.
In the case of `O=C1CC2CNCCN2c2cc(/C=C/c3ccccc3)ccc2N1` (stereo not shown) [Example 6, 10-[(E)-2-phenylvinyl]-1,2,3,4,4a,5-hexahydropyrazino[1,2-a][1,5]benzodiazepin-6(7H)-one], on 5HT2C receptors, the 50% effective concentration (EC50) is 0.0298 µM and the Emax came out at 89.5%. Further, the affinity in assay [1] corresponds to a Ki of 0.0035 µM.
On the same counts, the results for `O=C1CC2CNCCN2c2cc(Cl)ccc2N1` (stereo not shown) [Example 3, 10-chloro-1,2,3,4,4a,5-hexahydropyrazino[1,2-a][1,5]benzodiazepin-6(7H)-one] are 0.0017 µM, 93% and 0.012 µM.
For `Clc1ccc2c(c1)N1CCNCC1CCN2` (stereo not shown) [Example 18, 10-chloro-1,2,3,4,4a,5,6,7-octahydropyrazino[1,2-a][1,5]benzodiazepine] the same measures were 0.0037 µM, 108% and 0.018 µM.
On the same counts, the results for `O=C1CC2CNCCN2c2ccc(F)cc2N1` (stereo not shown) [Example 34, 9-fluoro-1,2,3,4,4a,5-hexahydropyrazino[1,2-a][1,5]-benzodiazepin-6(7H)-one] are 0.0893 µM, 100% and 0.19 µM.
As for `N#Cc1ccc2c(c1)N1CCNCC1CC(=O)N2` (stereo not shown) [Example 11, 6-oxo-1,2,3,4,4a,5,6,7-octahydropyrazino[1,2-a][1,5]benzodiazepine-10-carbonitrile], on 5HT2C receptors, the EC50 turned out to be 0.0938 µM and the maximal effect (Emax) was 104%. The molecule also came in with an inhibition constant (Ki) in assay [1] of 0.19 µM.
On the same counts, the results for `COc1ccc2c(c1)N1CCNCC1CC(=O)N2` (stereo not shown) [Example 12, 10-methoxy-1,2,3,4,4a,5-hexahydropyrazino[1,2-a][1,5]benzodiazepin-6(7H)-one] are 0.0381 µM, 83.5% and 0.038 µM.
Consider `O=C1CC2CNCCN2c2ccc3ccccc3c2N1` (stereo not shown) [Example 39, 3,3a,4,5,6,7-hexahydronaphtho[1,2-b]pyrazino[1,2-d][1,4]diazepin-2(1H)-one], for which, on 5HT2C receptors, the 50% effective concentration (EC50) is more than 10 µM. This molecule came in with a Ki in assay [1] of 0.034 µM.
Turning to `O=C1CC2CNCCN2c2cc(C(F)(F)F)ccc2N1` (stereo not shown) [Example 31, 10-(trifluoromethyl)-1,2,3,4,4a,5-hexahydropyrazino[1,2-a][1,5]benzodiazepin-6(7H)-one], on 5HT2C receptors, the concentration giving a half-maximal response (EC50) came out at 0.0204 µM and the Emax is 118%. This molecule also registered a Ki in assay [1] of 0.087 µM.
As for `O=C1CC2CNCCN2c2cc(/C=C/c3ccc(F)cc3)ccc2N1` (stereo not shown) [Example 26, 10-[(E)-2-(4-fluorophenyl)vinyl]-1,2,3,4,4a,5-hexahydropyrazino[1,2-a][1,5]benzodiazepin-6(7H)-one], on 5HT2C receptors, the EC50 was 0.0855 µM and the Emax was 98.5%. The molecule further displayed a Ki in assay [1] of 0.032 µM.
For `O=C1CC2CNCCN2c2cc(/C=C/c3ccc(F)cc3F)ccc2N1` (stereo not shown) [Example 28, 10-[(E)-2-(2,4-difluorophenyl)vinyl]-1,2,3,4,4a,5-hexahydropyrazino[1,2-a][1,5]benzodiazepin-6(7H)-one] the same measures were 0.131 µM, 92% and 0.036 µM.
